How the values were obtained:
[1] = Long-term storage stability of NCA, purity by DSC; assay type: physicochemical; settings: for Purity after purification / Purity after 1 month from purification / Purity after 2 months from purification / Purity after a half year from purification / Purity after 1 year from purification / Purity after 2 years from purification: DSC
Experimental: In Examples and Comparative Examples, the purity of each NCA was measured using differential scanning calorimeter (DSC) in accordance with 2.52 thermal analysis method of The Japanese Pharmacopoeia, 17th ed. (2.4.4. measurement of purity). The measurement was performed using Thermo plus EVO DSC8230 (manufactured by Rigalu Corporation) as a measurement apparatus with the sample amount of 1 mg at a temperature increasing rate of 1° C./minute. Incidentally, it is conceived that precise measurement cannot be guaranteed unless the purity is 98 mol % or more according to 2.52 thermal analysis method of The Japanese Pharmacopoeia, 17th ed. (2.4.4. measurement of purity).
Each purified NCA was evaluated for long-term storage stability. […] Regarding the conditions of −20±5° C., the results of purity measured by DSC at after a half year, after 1 year, and after 2 years are shown. Regarding the conditions of 0 to 5° C., the results of purity measured by DSC at after 1 month, 2 months, and a half year are shown. As a comparison, commercially available NCA shown by the general formula (A) (manufactured by Isochem), the purity of which is more than 98 mol % based on the DSC measurement, was evaluated and shown as Comparison 1. This NCA has a residual chlorine concentration of 0.030 mass % and belongs to a lot with extremely low residual chlorine concentration in commercially available NCAs.

[2] = Solubility of NCA to good solvent and poor solvent, visual observation; assay type: physicochemical
From the text: The method to determine that the solvent is a good solvent for NCA includes a method of adding a good solvent to NCA with stirring, followed by visual observation to confirm that the NCA has been dissolved without forming turbidity, but is not particularly limited if complete dissolution can be determined by the method.
The method to determine that the solvent is a poor solvent for NCA is not particularly limited if total insolubility can be confirmed, including a method of adding a poor solvent to NCA with stirring, followed by confirming that the NCA is not dissolved at all and turbidity is not observed by visual inspection.
On the other hand, in order to determine the solubility of NCA to n-hexane, which is a poor solvent, 0.2 g of the purified NCA shown by the structural formula (A) was tried to be dissolved in 2.0 g of n-hexane.
[…] On the other hand, as a method to determine the solubility to a poor solvent, 2.0 g of n-hexane was added to 0.2 g of each NCA after purification.

[3] = initial value of storage test at 0 to 5° C.
[4] = initial value of storage test at −20±5° C.

SMILES | Purity after purification [1, 3] | Purity after purification [1, 4] | Purity after 1 month from purification ([1]; storage at 0 to 5° C.) | Purity after 2 months from purification ([1]; storage at 0 to 5° C.) | Purity after a half year from purification ([1]; storage at 0 to 5° C.) | Purity after 1 year from purification ([1]; storage at −20±5° C.) | Purity after 2 years from purification ([1]; storage at −20±5° C.) | Purity after a half year from purification ([1]; storage at −20±5° C.) | solubility of NCA to ethyl acetate (good solvent), purified NCA ([2]; 0.2 g purified NCA in 1.0 g ethyl acetate) | solubility of NCA to n-hexane (poor solvent), purified NCA ([2]; 0.2 g purified NCA in 2.0 g n-hexane) | solubility of NCA to ethyl acetate (good solvent), NCA before purification ([2]; NCA before purification in ethyl acetate) | long term storage stability (lowering of purity) at 0 to 5° C. ([1]; 0 to 5° C., up to a half year) | long term storage stability (lowering of purity) at −20° C. ([1]; −20° C., up to 2 years)
CC(C)(C)OC(=O)CCC1CC(=O)OC1=O (stereo not drawn) [(A)] | 98.93 mol % | 98.93 mol % | 98.93 mol % | 98.92 mol % | 98.90 mol % | 98.92 mol % | 98.90 mol % | 98.94 mol % | undissolved impurity was not determined visually | dissolution was not determined visually | undissolved impurities were determined visually |  | 
CC(C)(C)OC(=O)CCC1CC(=O)OC1=O (stereo not drawn) [Comparison 1, reference compound] | 98.14 mol % | 98.14 mol % | <98 mol % | <98 mol % | <98 mol % | 98.02 mol % | <98 mol % | 98.06 mol % |  |  |  | lowered in 1 month | the purity was lowered in 2 years

Reference: US10975042B2, “Method for purifying an amino acid-n-carboxy anhydride” (SHIN-ETSU CHEMICAL CO., LTD., priority 2018, dated 2021)
